# Measurements: EP0960886B1, “Peptide T and related peptides in the treatment of inflammation, including multiple sclerosis” (priority 1992, dated 1993)
# Tests used:
# [1] = patients with AIDS; Phase I (USC) and Phase II (Fenway Clinic); cited from earlier work
# PBMC = test: Mitogen induced proliferation of PBMC, 3H thymidine uptake, 6 day culture (Example 8); format: cell-based, human
# Procedure: PBMC (10^5) were cultured in 200 µl RPMI containing 10% heat inactivated foetal bovine serum, 2 mM L-glutamine and gentamycin 100 µg/ml with mitogen and Peptide T added on the first day of culture. Growth was assessed in triplicate by ^3H thymidine uptake following a 6 day incubation and expressed as a proliferation index (cpm in presence of mitogen ± Peptide T […] cpm in absence of stimulation). A proliferation index >1.00 implies growth beyond that in media alone. At physiologically obtainable concentrations, Peptide T inhibits proliferation of normal (HIV seronegative) peripheral blood mononuclear cells (PBMC) without causing significant cytotoxicity as shown in Table III. This effect is long term in that Peptide T given on the first day of a six day culture will inhibit mitogen induced proliferation.
# LPS = test: LPS-induced inflammation in mice (Example 5); format: in vivo, balb/c mice; design: key: indicated on a scale of (-) to (+++); indicated on a scale of (-) to (+++); indicated on a scale of (-) to (+++)
# Procedure: Normal balb/c mice (female, 12 weeks) were administered LPS (250 µg, E. coli K-235, Sigma cat. no. L-2018) at time zero. One group of mice (50 animals) were then treated at 30 minutes intervals by i.p. injections of bovine serum albumin (BSA) (Sigma cat. no. 6793) dissolved in pyrogen-free, sterile, isotonic water (2.5 mg BSA per animal per injection, each injection containing 100 µl).
# The second group of mice (50 animals) were treated at 30 minutes intervals by i.p. injections of Peptide T (Carlbiotech A/S batch 109401) dissolved in pyrogen-free, sterile, isotonic water (2.5 mg Peptide T per animal per injection, each injection 100 µl).
# Glucose levels were determined on blood samples after 3 hours. Subjective parameters such as secretion from the eye, diarrhoea and general well being are indicated on a scale of (-) to (+++).
# gp120 = conditions: rat hippocampal membranes; cited from earlier work
# [2] = system: mouse foetal hippocampal neurons; conditions: cited from earlier work
# [3] = t3hrs, LPS 250 µg, 2.5 mg Peptide T i.p. at 30 minutes intervals
structure (smiles),measurement,setting,value
"C[C@@H](N)C(=O)N[C@@H](CO)C(=O)N[C@H](C(=O)N[C@H](C(=O)N[C@H](C(=O)N[C@@H](CC(N)=O)C(=O)N[C@@H](Cc1ccc(O)cc1)C(=O)N[C@H](C(N)=O)[C@@H](C)O)[C@@H](C)O)[C@@H](C)O)[C@@H](C)O [Peptide T, D-Ala-Ser-Thr-Thr-Thr-Asn-Tyr-Thr-NH2]",HIV-induced neurocognitive impairment,[1],improvement
same,Proliferation Index ± SD,"PBMC; ConA 25 µg/ml, Peptide T 10^-5 mol/l, without Peptide T 4.55±0.66",2.72±1.20
same,Proliferation Index ± SD,"PBMC; ConA 25 µg/ml, Peptide T 10^-7 mol/l, without Peptide T 4.55±0.66",3.19±0.06
same,Proliferation Index ± SD,"PBMC; ConA 25 µg/ml, Peptide T 10^-9 mol/l, without Peptide T 4.55±0.66",1.98±0.04
same,Proliferation Index ± SD,"PBMC; ConA 25 µg/ml, Peptide T 10^-12 mol/l, without Peptide T 4.55±0.66",1.69±0.48
same,Proliferation Index ± SD,"PBMC; Media (absence of mitogens), Peptide T 10^-5 mol/l",1.14±0.15
same,Proliferation Index ± SD,"PBMC; Media (absence of mitogens), Peptide T 10^-7 mol/l",0.73±0.16
same,Proliferation Index ± SD,"PBMC; Media (absence of mitogens), Peptide T 10^-9 mol/l",2.17±1.10
same,Proliferation Index ± SD,"PBMC; Media (absence of mitogens), Peptide T 10^-12 mol/l",1.52±0.15
same,Proliferation Index ± SD,"PBMC; PHA 25 µg/ml, Peptide T 10^-5 mol/l, without Peptide T 317.0±41.0",149.0±38.4
same,Proliferation Index ± SD,"PBMC; PHA 25 µg/ml, Peptide T 10^-7 mol/l, without Peptide T 317.0±41.0",123.6±18.1
same,Proliferation Index ± SD,"PBMC; PHA 25 µg/ml, Peptide T 10^-9 mol/l, without Peptide T 317.0±41.0",78.6±23.1
same,Proliferation Index ± SD,"PBMC; PHA 25 µg/ml, Peptide T 10^-12 mol/l, without Peptide T 317.0±41.0",103.8±22.8
same,Proliferation Index ± SD,"PBMC; PWM 25 µg/ml, Peptide T 10^-7 mol/l, without Peptide T 7.47±0.50",4.47±0.36
same,Proliferation Index ± SD,"PBMC; PWM 25 µg/ml, Peptide T 10^-9 mol/l, without Peptide T 7.47±0.50",4.69±0.42
same,Proliferation Index ± SD,"PBMC; PWM 25 µg/ml, Peptide T 10^-12 mol/l, without Peptide T 7.47±0.50",4.15±0.23
same,General well being,LPS; t0 (baseline),-
same,Secretion from eyes,LPS; t0 (baseline),-
same,Diarrhoea,"LPS; t0 (baseline), LPS 250 µg at time zero",-
same,Diarrhoea,LPS; [3],+
same,General well being,LPS; [3],+
same,Secretion from eyes,LPS; [3],+
same,concentrations that inhibit the binding of radiolabelled gp120,gp120,0.1 nM
same,neurotoxicity of CSF from a patient with AIDS dementia,"[2]; CSF at 1:100,000 dilution, 44-49% killing without peptide",inhibited
same,gp120-induced neurotoxicity,[2]; cultures of mouse foetal hippocampal neurons,"completely, antagonised"
